According to PubChem BioAssay (NCI):
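Method: 48-hour compound exposure of cells in 96-well plates, five concentrations, linear interpolation of endpoints. The concentration for full growth arrest is given as TGI.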

Tests used:
Assay in all cases: NCI-60 cell line screen, 48 h
OVCAR-3 ovarian = tested on: OVCAR-3 ovarian
CAKI-1 renal = tested on: CAKI-1 renal
OVCAR-8 ovarian = tested on: OVCAR-8 ovarian
NCI-H226 lung = tested on: NCI-H226 lung
SW-620 colon = tested on: SW-620 colon
SK-OV-3 ovarian = tested on: SK-OV-3 ovarian
KM20L2 colon = tested on: KM20L2 colon
UACC-257 melanoma = tested on: UACC-257 melanoma
UO-31 renal = tested on: UO-31 renal
TK-10 renal = tested on: TK-10 renal
U251 CNS = tested on: U251 CNS
A549 NSCLC = tested on: A549 NSCLC
DLD-1 colon = tested on: DLD-1 colon
NCI-H23 lung = tested on: NCI-H23 lung
SF-539 CNS = tested on: SF-539 CNS
M14 melanoma = tested on: M14 melanoma
SR leukemia = tested on: SR leukemia
SN12C renal = tested on: SN12C renal
SF-295 CNS = tested on: SF-295 CNS
SK-MEL-28 melanoma = tested on: SK-MEL-28 melanoma
UACC-62 melanoma = tested on: UACC-62 melanoma
OVCAR-4 ovarian = tested on: OVCAR-4 ovarian
SF-268 CNS = tested on: SF-268 CNS
HOP-92 NSCLC = tested on: HOP-92 NSCLC
SK-MEL-5 melanoma = tested on: SK-MEL-5 melanoma
SNB-75 CNS = tested on: SNB-75 CNS
EKVX NSCLC = tested on: EKVX NSCLC
RPMI-8226 leukemia = tested on: RPMI-8226 leukemia
M19-MEL melanoma = tested on: M19-MEL melanoma
MALME-3M melanoma = tested on: MALME-3M melanoma
LXFL 529 NSCLC = tested on: LXFL 529 NSCLC
COLO 205 colon = tested on: COLO 205 colon
HCT-15 colon = tested on: HCT-15 colon
MOLT-4 leukemia = tested on: MOLT-4 leukemia
DMS 273 small cell lung = tested on: DMS 273 small cell lung
LOX IMVI melanoma = tested on: LOX IMVI melanoma
RXF-631 renal = tested on: RXF-631 renal
DMS 114 small cell lung = tested on: DMS 114 small cell lung
786-0 renal = tested on: 786-0 renal
HOP-62 NSCLC = tested on: HOP-62 NSCLC
SNB-78 CNS = tested on: SNB-78 CNS
K-562 leukemia = tested on: K-562 leukemia
SNB-19 CNS = tested on: SNB-19 CNS
HT29 colon = tested on: HT29 colon
A498 renal = tested on: A498 renal
NCI-H522 lung = tested on: NCI-H522 lung
RXF 393 renal = tested on: RXF 393 renal
OVCAR-5 ovarian = tested on: OVCAR-5 ovarian
HCC-2998 colon = tested on: HCC-2998 colon
CCRF-CEM leukemia = tested on: CCRF-CEM leukemia
SK-MEL-2 melanoma = tested on: SK-MEL-2 melanoma
HOP-18 NSCLC = tested on: HOP-18 NSCLC
IGROV1 ovarian = tested on: IGROV1 ovarian
HCT-116 colon = tested on: HCT-116 colon
ACHN renal = tested on: ACHN renal
KM12 colon = tested on: KM12 colon
HL-60(TB) leukemia = tested on: HL-60(TB) leukemia
XF 498 CNS = tested on: XF 498 CNS
NCI-H460 lung = tested on: NCI-H460 lung

## NS(=O)(=O)c1ccc(NC(=O)C2C(=O)C(=O)N(c3ccc(S(N)(=O)=O)cc3)C2=O)cc1 (configuration not stated)
OVCAR-3 ovarian
  TGI: > 100 µM
CAKI-1 renal
  TGI: > 100 µM
OVCAR-8 ovarian
  TGI: > 100 µM
NCI-H226 lung
  TGI: > 100 µM
SW-620 colon
  TGI: > 100 µM
SK-OV-3 ovarian
  TGI: > 100 µM
KM20L2 colon
  TGI: > 100 µM
UACC-257 melanoma
  TGI: > 100 µM
UO-31 renal
  TGI: > 100 µM
TK-10 renal
  TGI: > 100 µM
U251 CNS
  TGI: > 100 µM
A549 NSCLC
  TGI: > 100 µM
DLD-1 colon
  TGI: > 100 µM
NCI-H23 lung
  TGI: > 100 µM
SF-539 CNS
  TGI: > 100 µM
M14 melanoma
  TGI: > 100 µM
SR leukemia
  TGI: > 100 µM
SN12C renal
  TGI: > 100 µM
SF-295 CNS
  TGI: > 100 µM
SK-MEL-28 melanoma
  TGI: > 100 µM
UACC-62 melanoma
  TGI: > 100 µM
OVCAR-4 ovarian
  TGI: > 100 µM
SF-268 CNS
  TGI: > 100 µM
HOP-92 NSCLC
  TGI: > 100 µM
SK-MEL-5 melanoma
  TGI: > 100 µM
SNB-75 CNS
  TGI: > 100 µM
EKVX NSCLC
  TGI: > 100 µM
RPMI-8226 leukemia
  TGI: > 100 µM
M19-MEL melanoma
  TGI: > 100 µM
MALME-3M melanoma
  TGI: > 100 µM
LXFL 529 NSCLC
  TGI: > 100 µM
COLO 205 colon
  TGI: > 100 µM
HCT-15 colon
  TGI: > 100 µM
MOLT-4 leukemia
  TGI: > 100 µM
DMS 273 small cell lung
  TGI: > 100 µM
LOX IMVI melanoma
  TGI: > 100 µM
RXF-631 renal
  TGI: > 100 µM
DMS 114 small cell lung
  TGI: > 100 µM
786-0 renal
  TGI: > 100 µM
HOP-62 NSCLC
  TGI: > 100 µM
SNB-78 CNS
  TGI: > 100 µM
K-562 leukemia
  TGI: > 100 µM
SNB-19 CNS
  TGI: > 100 µM
HT29 colon
  TGI: > 100 µM
A498 renal
  TGI: > 100 µM
NCI-H522 lung
  TGI: > 100 µM
RXF 393 renal
  TGI: > 100 µM
OVCAR-5 ovarian
  TGI: > 100 µM
HCC-2998 colon
  TGI: > 100 µM
CCRF-CEM leukemia
  TGI: > 100 µM
SK-MEL-2 melanoma
  TGI: > 100 µM
HOP-18 NSCLC
  TGI: > 100 µM
IGROV1 ovarian
  TGI: > 100 µM
HCT-116 colon
  TGI: > 100 µM
ACHN renal
  TGI: > 100 µM

## CCOC(=N)CC(=O)Nc1ccccc1
OVCAR-3 ovarian
  TGI: > 31.6 µM
CAKI-1 renal
  TGI: > 100 µM
OVCAR-8 ovarian
  TGI: > 21.5 µM
NCI-H226 lung
  TGI: > 31.6 µM
SW-620 colon
  TGI: > 67.6 µM
SK-OV-3 ovarian
  TGI: > 100 µM
KM20L2 colon
  TGI: > 100 µM
UACC-257 melanoma
  TGI: > 46.4 µM
UO-31 renal
  TGI: > 46.4 µM
TK-10 renal
  TGI: > 46.4 µM
KM12 colon
  TGI: > 46.4 µM
U251 CNS
  TGI: > 100 µM
A549 NSCLC
  TGI: > 46.4 µM
DLD-1 colon
  TGI: > 46.4 µM
NCI-H23 lung
  TGI: > 46.4 µM
SF-539 CNS
  TGI: > 46.4 µM
M14 melanoma
  TGI: > 46.4 µM
SR leukemia
  TGI: > 69.1 µM
SN12C renal
  TGI: > 46.4 µM
SF-295 CNS
  TGI: > 100 µM
SK-MEL-28 melanoma
  TGI: > 46.4 µM
UACC-62 melanoma
  TGI: > 100 µM
OVCAR-4 ovarian
  TGI: > 46.4 µM
SF-268 CNS
  TGI: > 46.4 µM
HL-60(TB) leukemia
  TGI: > 100 µM
SK-MEL-5 melanoma
  TGI: > 46.4 µM
SNB-75 CNS
  TGI: > 46.4 µM
EKVX NSCLC
  TGI: > 100 µM
XF 498 CNS
  TGI: > 67 µM
RPMI-8226 leukemia
  TGI: 22.8 µM
M19-MEL melanoma
  TGI: > 46.4 µM
MALME-3M melanoma
  TGI: > 46.4 µM
LXFL 529 NSCLC
  TGI: > 46.4 µM
COLO 205 colon
  TGI: > 46.4 µM
HCT-15 colon
  TGI: > 46.4 µM
MOLT-4 leukemia
  TGI: > 31.6 µM
DMS 273 small cell lung
  TGI: > 46.4 µM
LOX IMVI melanoma
  TGI: > 71.4 µM
DMS 114 small cell lung
  TGI: > 46.4 µM
786-0 renal
  TGI: > 46.4 µM
HOP-62 NSCLC
  TGI: > 46.4 µM
SNB-78 CNS
  TGI: > 46.4 µM
K-562 leukemia
  TGI: > 31.6 µM
SNB-19 CNS
  TGI: > 100 µM
NCI-H460 lung
  TGI: > 46.4 µM
HT29 colon
  TGI: > 46.4 µM
A498 renal
  TGI: > 46.4 µM
NCI-H522 lung
  TGI: > 100 µM
RXF 393 renal
  TGI: > 46.4 µM
OVCAR-5 ovarian
  TGI: > 100 µM
HCC-2998 colon
  TGI: > 31.6 µM
CCRF-CEM leukemia
  TGI: > 31.6 µM
SK-MEL-2 melanoma
  TGI: > 31.6 µM
HOP-18 NSCLC
  TGI: > 31.6 µM
IGROV1 ovarian
  TGI: > 46.4 µM
HCT-116 colon
  TGI: > 46.4 µM
ACHN renal
  TGI: > 46.4 µM
